Article PMC4270767 (PLoS ONE, 2014)
Values joined by “and” are separate entries in the source; they are usually repeats but may differ in a detail not shown here. Equal entries are not always repeated. Structures can show the parent of a compound that is named as a salt. Where two headings read alike, the source gives them in different places.

Assays:
MtSerB2 [1] = molecular target: T1, MtSerB2 (Mycobacterium tuberculosis, UniProt O53289); assay: Effects of added amino acids on MtSerB2 phosphatase activity; assay type: biochemical, M. tuberculosis; details: for % activation or IC50: amino acids without effect
T1 sequence (O53289 whole entry): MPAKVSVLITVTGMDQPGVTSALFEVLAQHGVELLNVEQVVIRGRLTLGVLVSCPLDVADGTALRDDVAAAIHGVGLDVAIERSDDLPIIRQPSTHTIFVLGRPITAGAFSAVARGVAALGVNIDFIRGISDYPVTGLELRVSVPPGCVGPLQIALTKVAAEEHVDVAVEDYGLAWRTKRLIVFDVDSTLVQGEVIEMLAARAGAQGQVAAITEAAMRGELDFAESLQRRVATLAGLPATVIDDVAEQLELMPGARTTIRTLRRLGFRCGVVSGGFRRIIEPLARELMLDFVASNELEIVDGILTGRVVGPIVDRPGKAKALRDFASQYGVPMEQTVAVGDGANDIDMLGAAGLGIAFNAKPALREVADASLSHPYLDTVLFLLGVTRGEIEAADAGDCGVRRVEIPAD

MtSerB2 [2] = molecular target: T1, MtSerB2; assay type: biochemical, M. tuberculosis; details: for effect of divalent cation on MtSerB2 activity: relative to Mg^2+
MtSerB2 [3] = molecular target: T1, MtSerB2; assay: Inhibition of MtSerB2 hydrolysis of L-phosphoserine (malachite green); assay type: biochemical, M. tuberculosis
[4] = molecular target: PSP domain of MtSerB2 (PSPD) (Mycobacterium tuberculosis, UniProt O53289); assay: biochemical; set-up: species or system M. tuberculosis
PSP domain of MtSerB2 (PSPD), sequence (O53289 165-409 limits assumed): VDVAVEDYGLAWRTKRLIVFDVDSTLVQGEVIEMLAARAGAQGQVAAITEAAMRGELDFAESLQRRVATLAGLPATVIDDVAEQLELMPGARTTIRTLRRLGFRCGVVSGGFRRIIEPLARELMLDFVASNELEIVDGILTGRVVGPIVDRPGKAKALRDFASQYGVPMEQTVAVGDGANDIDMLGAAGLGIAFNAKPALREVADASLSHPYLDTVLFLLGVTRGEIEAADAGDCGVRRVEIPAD

MtSerB2 [5] = molecular target: T1, MtSerB2; details: Superdex S200, samples pre-equilibrated 1 h

CC[C@H](C)[C@H](N)C(=O)O [Ile]
Activation factor (MtSerB2 [1]): Non modulator
% activation or IC50 (MtSerB2 [1]): No Change

[Zn+2] [Zn^2+]
concentration level of inhibition (MtSerB2 [2]): inhibits the activity at nanomolar levels
effect of divalent cation on MtSerB2 activity (MtSerB2 [2]): deactivates

O=C(O)[C@@H]1CCCN1 [Pro]
Activation factor (MtSerB2 [1]): Inhibition
IC50 (MtSerB2 [1]): > 5000 µM

CC(C)[C@H](N)C(=O)O [Val]
Activation factor (MtSerB2 [1]): Inhibition
IC50 (MtSerB2 [1]): 3660 ± 212 µM

[Co+2] [Co^2+]
effect of divalent cation on MtSerB2 activity (MtSerB2 [2]): deactivates

CN(C)CCCN1c2ccccc2Sc2ccc(Cl)cc21 [Chlorpromazine, Chlorpromazine Hydrochloride]
Imax (%) SerB2 (MtSerB2 [3]): 70%
Inhibition of phosphatase activity (MtSerB2 [3]): inhibition at nanomolar concentrations
type of inhibition (MtSerB2 [3]): non-competitive
IC50 (MtSerB2 [3]; read-out: IC50 (µM) SerB2): 0.92 ± 0.1 µM
Imax (%) PSPD [4]: 95%
IC50 ([4]; IC50 (µM) PSPD): ~6.25 µM and 6.25 µM

NC(=O)CC[C@H](N)C(=O)O [Gln]
Activation factor (MtSerB2 [1]): Inhibition
IC50 (MtSerB2 [1]): 432 ± 13 µM

N[C@@H](CS)C(=O)O [Cys]
Activation factor (MtSerB2 [1]): Non Modulator
% activation or IC50 (MtSerB2 [1]): No Change

N=C(N)NCCC[C@H](N)C(=O)O [Arg]
Activation factor (MtSerB2 [1]): Inhibition
IC50 (MtSerB2 [1]): 632 ± 14 µM

C[N+](C)(C)CCOP(=O)([O-])OCC(O)CO (stereo not drawn) [α-GPC, α-Glycerophosphorylcholine]
Imax (%) SerB2 (MtSerB2 [3]): 35%
Imax (%) PSPD [4]: 31%

N[C@@H](CP(=O)(O)O)C(=O)O [L- AP3, L-2-amino-3-phosphonopropionate]
Imax (%) SerB2 (MtSerB2 [3]): 23%
Imax (%) PSPD [4]: 21%

O=C(O)CN(CCN(CC(=O)O)CC(=O)O)CC(=O)O [EDTA]
Inhibition of phosphatase activity (MtSerB2 [3]): decrease of enzyme activity

Sodium Vanadate
Imax (%) SerB2 (MtSerB2 [3]): 88%
Imax (%) PSPD [4]: 93%

C=C1[C@@H](O)[C@@H]2O[C@]3(CC[C@H](/C=C/[C@@H](C)[C@@H]4CC(C)=C[C@@]5(O[C@H](C[C@@](C)(O)C(=O)O)CC[C@H]5O)O4)O3)CC[C@H]2O[C@@H]1[C@@H](O)C[C@H](C)[C@H]1O[C@@]2(CCCCO2)CC[C@H]1C [Okadaic acid]
Imax (%) SerB2 (MtSerB2 [3]): 14%
Inhibition of phosphatase activity (MtSerB2 [3]): not able to inhibit the phosphatase activity
Imax (%) PSPD [4]: 22%

C[C@H](N)C(=O)O [Ala]
Activation factor (MtSerB2 [1]): Inhibition
IC50 (MtSerB2 [1]): 3830 ± 234 µM

N[C@@H](Cc1ccccc1)C(=O)O [Phe]
Activation factor (MtSerB2 [1]): Activation

NCC(=O)O [Gly]
Activation factor (MtSerB2 [1]): Inhibition
IC50 (MtSerB2 [1]): 381 ± 15 µM

N[C@@H](Cc1c[nH]c2ccccc12)C(=O)O [Trp]
Activation factor (MtSerB2 [1]): Inhibition
IC50 (MtSerB2 [1]): 322 ± 23 µM

NC(CP(=O)(O)O)C(=O)O (racemic) [D,L- AP3, DL-2-Amino-3-Phosphonopropionic Acid]
Imax (%) SerB2 (MtSerB2 [3]): 22%
Imax (%) PSPD [4]: 19%

C[C@@H](O)[C@H](N)C(=O)O [Thr]
Activation factor (MtSerB2 [1]): Inhibition
IC50 (MtSerB2 [1]): 3460 ± 206 µM

N[C@@H](CCC(=O)O)C(=O)O [Glu]
Activation factor (MtSerB2 [1]): Inhibition
IC50 (MtSerB2 [1]): 363 ± 20 µM

C[N+](C)(C)CCOP(=O)(O)O [Phosphorylcholine]
Imax (%) SerB2 (MtSerB2 [3]): 10%
Imax (%) PSPD [4]: 14%

[Ca+2].[Cl-].[Cl-] [Ca^2+]
effect of divalent cation on MtSerB2 activity (MtSerB2 [2]): deactivates

N[C@@H](Cc1ccc(O)cc1)C(=O)O [Tyr]
Activation factor (MtSerB2 [1]): Activation

CSCC[C@H](N)C(=O)O [Met]
Activation factor (MtSerB2 [1]): Non modulator
% activation or IC50 (MtSerB2 [1]): No Change

NCCCC[C@H](N)C(=O)O [Lys]
% activation (MtSerB2 [1]): 40%
Activation factor (MtSerB2 [1]): Activation

[Mn+2] [Mn^2+]
effect of divalent cation on MtSerB2 activity (MtSerB2 [2]): deactivates

N[C@@H](CO)C(=O)O [L-serine]
IC50 (MtSerB2 [3]): 0.78 ± 0.08 µM
Imax (%) SerB2 (MtSerB2 [3]): 65%
Imax (%) PSPD [4]: 70%
IC50 ([4]; IC50 (µM) PSPD): 824 ± 39 µM
Activation factor (MtSerB2 [1]): Inhibition
molar ratio of L-serine and MtSerB2 at shift of dimer to tetramer (higher order oligomer) (MtSerB2 [5]): ~0.8

N[C@@H](Cc1c[nH]cn1)C(=O)O [His]
Activation factor (MtSerB2 [1]): Inhibition
IC50 (MtSerB2 [1]): 4860 ± 218 µM

[Ni+2] [Ni^2+]
effect of divalent cation on MtSerB2 activity (MtSerB2 [2]): deactivates

NC(=O)C[C@H](N)C(=O)O [Asn]
Activation factor (MtSerB2 [1]): Non modulator
% activation or IC50 (MtSerB2 [1]): No Change

[F-].[Na+] [NaF, Sodium fluoride]
Imax (%) SerB2 (MtSerB2 [3]): 55%
Inhibition of phosphatase activity (MtSerB2 [3]): decrease of enzyme activity
IC50 (MtSerB2 [3]; read-out: IC50): ~3000 µM
IC50 (MtSerB2 [3]; read-out: IC50 (µM) SerB2): 3110 ± 155 µM
Imax (%) PSPD [4]: 72%
IC50 ([4]; read-out: IC50 (µM) PSPD): 2780 ± 216 µM

CC(C)C[C@H](N)C(=O)O [Leu]
Activation factor (MtSerB2 [1]): Non modulator
% activation or IC50 (MtSerB2 [1]): No Change

N[C@@H](CC(=O)O)C(=O)O [Asp]
Activation factor (MtSerB2 [1]): Inhibitor
IC50 (MtSerB2 [1]): 1620 ± 84 µM
